According to PubChem BioAssay AID1963977 (Molecular Pharmacology Branch, DTP, NCI, 2024):

Test system: 624824-186-R-J3-PDC multicell spheroids, viability
Assay: Anticancer human tumor 624824-186-R-J3-PDC patient-derived colon adenocarcinoma cell line growth inhibition [PI3K]
Conditions: for IC50: curve of first compound; for viability, T/C: stronger effect = lower value; active means viability on the fitted dose curve at most 10% of control; inactive means the rest
Description: Combinatorial screen of targeted agents with the PI3K inhibitors inavolisib, alpelisib, duvelisib, and copanlisib in multi-cell type tumor spheroids
A high-throughput screen of multi-cell type tumor spheroids was designed to identify active combinations of targeted small molecules and PI3K pathway inhibitors. Complex spheroids include a stromal component modeled by human endothelial cells (HUVEC) and fibroblasts modeled by human mesenchymal stem cells (MSCs). The concentration ranges selected for each drug and investigational agent were based upon clinically achievable concentrations if the clinical Cmax of the agent was known.
Compounds. The drugs and investigational agents: inavolisib (NSC800729), alpelisib (NSC765974), duvelisib (NSC772469), copanlisib (NSC816437), ipatasertib (NSC767898), afuresertib (NSC778305), talazoparib (NSC767125), sapanisertib (NSC764658), selumetinib (NSC741078), tovorafenib (DAY101, NSC766906), vemurafenib (NSC761431), ravoxertinib (NSC781343), sotorasib (NSC818433), MRTX1133 (NSC 836407), abemaciclib (NSC 768073), palbociclib (NSC758247), venetoclax (NSC 766270), SY5609 (NSC837396), enzalutamide (NSC755605), and darolutamide (NSC825331), were obtained from the National Cancer Institute (NCI) Developmental Therapeutics Program Chemical Repository. The FDA-approved anticancer drug set is available from the NCI Developmental Therapeutics Program. […] The stock solutions were prepared in dimethyl sulfoxide (DMSO, Sigma-Aldrich, St. Louis, MO, cat. D2650) at 800-fold the tested concentration and stored at -70 degrees C prior to their use. All drugs and investigational agents were tested over a range starting from a high concentration at or near the clinical Cmax and decreasing in half-log increments. If the clinical Cmax for an agent had not been determined, the highest concentration tested was 10 microM.
Cell Culture. All cells were maintained in an incubator at 37 degrees C and 5% CO2 with 95% humidity. The PDC lines were cultured according to standard operating procedures established by the NCI PDMR (https://pdmr.cancer.gov/sops/default.htm). All PDCs were thawed and cultured in Matrigel-coated flasks prepared with a working solution of 1X Ham's F-12 nutrient mix, without supplementation (Invitrogen, Waltham, MA, cat. 11765054), 100 U/mL penicillin-streptomycin (Invitrogen, cat. 15140122), and 2.5% Matrigel (Corning Inc., Corning, NY, cat. 354248) for the first three passages. The 354836-022-R-J1-PDC, 475296-252-R-J1-PDC, and 997726-040-R-J2-PDC lines were cultured in 6A media, which includes advanced DMEM/F-12 (Thermo Fisher Scientific, cat. 12634028), 10 mM HEPES (Thermo Fisher Scientific, cat. 15630080), 1X GlutaMAX supplement (Thermo Fisher Scientific, cat. 35050061), 0.1 mg/mL primocin (InvivoGen, San Diego, CA, cat. ant-pm-2), 10% defined fetal bovine serum, heat inactivated (HyClone Laboratories Inc., Logan, UT, cat. SH30070.03HI), 50% L-WRN conditioned media (ATCC, cat. CRL-3276), 1.25 mM N-Acetyl-L-cysteine (Sigma-Aldrich, cat. A9165), 10 mM nicotinamide (Sigma-Aldrich, cat. N0636), 1X B-27 supplement (Thermo Fisher Scientific, cat. 17504044), 1X N-2 supplement (Thermo Fisher Scientific, cat. 17502048), and 10 microM Y-27632 dihydrochloride (Tocris Bioscience, Bristol, United Kingdom, cat. 1254). The 624824-186-R-J2-PDC line was cultured in 6C/Colon 1B media, which includes all 6A media components plus 50 ng/mL human EGF recombinant protein (Thermo Fisher Scientific, cat. PHG0311). […]

[1] = second compound 0.0316 µM, first compound 0.0316 µM
[2] = second compound 0.0316 µM, first compound 0.1 µM
[3] = second compound 0.0316 µM, first compound 0.316 µM
[4] = second compound 0.0316 µM, first compound 1 µM
[5] = second compound 0.0316 µM, first compound 3.16 µM
[6] = second compound 0.0316 µM, first compound 10 µM
[7] = second compound 0.1 µM, first compound 0.0316 µM
[8] = second compound 0.1 µM, first compound 0.1 µM
[9] = second compound 0.1 µM, first compound 0.316 µM
[10] = second compound 0.1 µM, first compound 1 µM
[11] = second compound 0.1 µM, first compound 3.16 µM
[12] = second compound 0.1 µM, first compound 10 µM
[13] = second compound 0.316 µM, first compound 0.0316 µM
[14] = second compound 0.316 µM, first compound 0.1 µM
[15] = second compound 0.316 µM, first compound 0.316 µM
[16] = second compound 0.316 µM, first compound 1 µM
[17] = second compound 0.316 µM, first compound 3.16 µM
[18] = second compound 0.316 µM, first compound 10 µM
[19] = second compound 1 µM, first compound 0.0316 µM
[20] = second compound 1 µM, first compound 0.1 µM
[21] = second compound 1 µM, first compound 0.316 µM
[22] = second compound 1 µM, first compound 1 µM
[23] = second compound 1 µM, first compound 3.16 µM
[24] = second compound 1 µM, first compound 10 µM
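Further: spheroids exposed to agents for seven days before luminescence read.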
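Wherever viability, T/C is given: luminescent signal used as a stand-in for spheroid viability; percent viability relative to DMSO vehicle control wells taken as 100%.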

CC1(C)CCC(CN2CCN(c3ccc(C(=O)NS(=O)(=O)c4ccc(NCC5CCOCC5)c([N+](=O)[O-])c4)c(Oc4cnc5[nH]ccc5c4)c3)CC2)=C(c2ccc(Cl)cc2)C1 + COc1c(OCCCN2CCOCC2)ccc2c3n(c(=NC(=O)c4cnc(N)nc4)nc12)CCN3
> 10000 nM: IC50 (second compound 0.00316 µM) | IC50 (second compound 0.01 µM) | IC50 (second compound 0.0316 µM) | IC50 (second compound 0.1 µM)
< 31.6 nM: IC50 (second compound 0.316 µM) | IC50 (second compound 1 µM)
inactive: viability, T/C (second compound 0.00316 µM, first compound 0.0316 µM) 114% | viability, T/C (second compound 0.00316 µM, first compound 0.1 µM) 99.2% | viability, T/C (second compound 0.00316 µM, first compound 0.316 µM) 111% | viability, T/C (second compound 0.00316 µM, first compound 1 µM) 102% | viability, T/C (second compound 0.00316 µM, first compound 3.16 µM) 121% | viability, T/C (second compound 0.00316 µM, first compound 10 µM) 105% | viability, T/C (second compound 0.01 µM, first compound 0.0316 µM) 93.7% | viability, T/C (second compound 0.01 µM, first compound 0.1 µM) 99.5% | viability, T/C (second compound 0.01 µM, first compound 0.316 µM) 105% | viability, T/C (second compound 0.01 µM, first compound 1 µM) 105% | viability, T/C (second compound 0.01 µM, first compound 3.16 µM) 105% | viability, T/C (second compound 0.01 µM, first compound 10 µM) 107% | viability, T/C [1] 95% | viability, T/C [2] 96.8% | viability, T/C [3] 89.6% | viability, T/C [4] 87.6% | viability, T/C [5] 99.1% | viability, T/C [6] 85.2% | viability, T/C [7] 73.1% | viability, T/C [8] 83.8% | viability, T/C [9] 74.4% | viability, T/C [10] 75.5% | viability, T/C [11] 65% | viability, T/C [12] 80% | viability, T/C [13] 50.7% | viability, T/C [14] 46.9% | viability, T/C [15] 50.7% | viability, T/C [16] 47.2% | viability, T/C [17] 43.1% | viability, T/C [18] 57.9% | viability, T/C [19] 29.5% | viability, T/C [20] 33.7% | viability, T/C [21] 31.5% | viability, T/C [22] 33.7% | viability, T/C [23] 26.9% | viability, T/C [24] 30.8%

Cn1ncc(Cl)c1-c1cc(C(=O)NC(CN)Cc2cccc(F)c2)sc1Cl (centres undefined) + Cc1nc(NC(=O)N2CCCC2C(N)=O)sc1-c1ccnc(C(C)(C)C(F)(F)F)c1
2850 nM: IC50 (second compound 1 µM)
3910 nM: IC50 (second compound 0.0316 µM)
933 nM: IC50 (second compound 10 µM)
2440 nM: IC50 (second compound 0.316 µM)
2840 nM: IC50 (second compound 0.1 µM)
inactive: viability, T/C [1] 107% | viability, T/C [2] 95.5% | viability, T/C [3] 90.2% | viability, T/C [4] 71.7% | viability, T/C [5] 52.4% | viability, T/C [6] 36.4% | viability, T/C [7] 104% | viability, T/C [8] 103% | viability, T/C [9] 98.8% | viability, T/C [10] 70.9% | viability, T/C [11] 49.8% | viability, T/C [12] 39% | viability, T/C [13] 108% | viability, T/C [14] 104% | viability, T/C [15] 89.4% | viability, T/C [16] 61% | viability, T/C [17] 50% | viability, T/C [18] 36.1% | viability, T/C [19] 102% | viability, T/C [20] 87% | viability, T/C [21] 82.2% | viability, T/C [22] 70.1% | viability, T/C [23] 44.9% | viability, T/C [24] 30.4% | viability, T/C (second compound 3.16 µM, first compound 0.0316 µM) 76.7% | viability, T/C (second compound 3.16 µM, first compound 0.1 µM) 89% | viability, T/C (second compound 3.16 µM, first compound 0.316 µM) 81.9% | viability, T/C (second compound 3.16 µM, first compound 1 µM) 56.7% | viability, T/C (second compound 3.16 µM, first compound 3.16 µM) 42.8% | viability, T/C (second compound 3.16 µM, first compound 10 µM) 26.7% | viability, T/C (second compound 10 µM, first compound 0.0316 µM) 74.5% | viability, T/C (second compound 10 µM, first compound 0.1 µM) 68% | viability, T/C (second compound 10 µM, first compound 0.316 µM) 54.8% | viability, T/C (second compound 10 µM, first compound 1 µM) 53.8% | viability, T/C (second compound 10 µM, first compound 3.16 µM) 37.6% | viability, T/C (second compound 10 µM, first compound 10 µM) 21.6%
1770 nM: IC50 (second compound 3.16 µM)
